# Source: patent US7786095B2, “Amphiphilic macrocyclic derivatives and their analogues” (University College Dublin, priority 2000, dated 2010)
# “And” between values parts separate entries of the source, which are not always exact repeats. Identical values can stand only once.
# Assays:
# Type in all cases: physicochemical
# [1] = Dynamic light scattering of cyclodextrin vesicles dispersed in water by sonication; details: sonicated 2 hours (HE-SC12 room temperature, HE-SC16 50° C.)
# Method: (§1) The amphiphilic cyclodextrins are dispersed in water by sonication of a thin film (cast by slow rotary evaporation of a solution of the cyclodextrins in chloroform) in a sonication bath. HE-SC12 is sonicated for 2 hours at room temperature and HE-SC16 is sonicated for 2 hours at 50° C. Dynamic light scattering indicates the presence of vesicles with an average diameter of 170 nm. Vesicles of cyclodextrins of 50-300 nm diameter are also observed by transmission electron microscopy using uranyl acetate as a negative staining agent (FIG. 1). Upon prolonged sonication (9 hours) of a solution of HE-SC12, a monodisperse solution of spherical vesicles with an average diameter of 60 nm is obtained (FIG. 2). Thus, the particle size can be directed by sonication time, in order to obtain a size suitable for specific molecular inclusion or specific therapeutic use.
# [2] = Transmission electron microscopy of cyclodextrin vesicles (uranyl acetate negative staining); details: prolonged sonication (9 hours), monodisperse solution
# Method: as §1
# [3] = Carboxyfluorescein entrapment in vesicles: fluorescence increase on Triton X-100 solubilisation; details: 1000-fold dilution, 0.1% w/w Triton X-100, two independent preparations
# Method: (§2) Vesicles of heptakis(6-dodecylthio-2-oligoethylenoxy)-β-cyclodextrin and […] were prepared by sonication in a buffered solution of carboxyfluorescein (CF).
# (i) Small aliquots of the solutions of the cyclodextrin vesicles (5-20 mM) were diluted 1000-fold, resulting in immediate dilution of the non-entrapped CF with concomitant intense CF fluorescence, which was measured. The fluorescence of entrapped CF is negligible due to self-quenching. Next, the vesicles in the diluted solution were solubilised by the addition of 0.1% w/w of the detergent Triton X-100, leading to release and dilution of entrapped CF, with concomitant increase of CF fluorescence, which was measured. In this concentration range (ca. […]). The fluorescence intensity of CF correlates linearly with its concentration, and the incremental change of fluorescence upon addition of Triton X-100 is a direct measure of the percentage of entrapped volume of the vesicles relative to the total volume of the solution. The entrapped volume amounted to 7.7+/−1.9% and 11.4+/−2.7% for two independent preparations of HE-SC16; and to 5.0+/−2.4% and 7.2+/−5.3% for two independent preparations of HE-SC12.
# [4] = Differential scanning calorimetry of a 10% (w/w) dispersion in water
# Method: Heptakis(6-hexadecylthio-2-oligoethylenoxy)-β-cyclodextrin was analysed using differential scanning calorimetry. […] The transition occurred around 48-49° C. and the enthalpy of transition amounted to 59 kJ/mol cyclodextrin. This typical Lβ-L[…] transition was confirmed in a measurement of the fluorescence polarisation of diphenylhexatriene in the presence of a vesicle solution by a standard method (R. R. C. New, Liposomes: a practical approach, Oxford University Press, 1990). Thus, vesicles of the amphiphilic cyclodextrins undergo thermotropic phase transitions which depend on molecular structure, and which can direct important parameters such as vesicle stability and bilayer permeability.
# [5] = Spontaneous release of carboxyfluorescein from gel-filtered vesicles over time; details: room temperature, after 3 days
# Method: as §2
# (ii) CF entrapped in the vesicles was separated from free (non-entrapped) CF by gel filtration using Sephadex G25. […] The peak of entrapped CF coincided with the elution of vesicles (FIG. 4). This confirms the existence of an aqueous inner compartment within the vesicles. Furthermore, as anticipated, the amount of entrapped CF in cyclodextrin vesicles correlated with the cyclodextrin concentration.
# (iii) The spontaneous release of CF from vesicles of HE-SC16 (separated from free CF by gel filtration) was measured over time. At room temperature, the leakage of CF was limited, and the vesicles retained more than 75% of CF after 3 days (FIG. 5).
Substance,average diameter of vesicles (dynamic light scattering) [1],average diameter of spherical vesicles after prolonged sonication [2],entrapped volume of the vesicles relative to the total volume of the solution [3],endothermic phase transition temperature (DSC heating scan) [4],enthalpy of transition [4],CF retained by vesicles [5]
heptakis(6-dodecylthio-2-oligoethylenoxy)-β-cyclodextrin [HE-SC12],170 nm,60 nm,5.0+/−2.4% and 7.2+/−5.3%,,,
heptakis(6-hexadecylthio-2-oligoethylenoxy)-β-cyclodextrin [HE-SC16],170 nm,,7.7+/−1.9% and 11.4+/−2.7%,48-49 °C,59 kJ/mol cyclodextrin,more than 75%
